Measurements reported in the supplement of paper PMC6045584.

Assays:
Test in all cases: area under dose-response curve of surviving fraction (unscaled, Aref=0) (surviving fraction x log10(nM)); higher = more resistant
Details in all cases: exposure time: 5 days; dose range 0.5-1000 nM
AFIMOXIFENE = compound: CC/C(=C(\c1ccc(O)cc1)c1ccc(OCCN(C)C)cc1)c1ccccc1 [AFIMOXIFENE]
Summary of the method: (§1)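 Each tumour cell line was screened three times in 384-well plates, receiving eight inhibitor concentrations from 0.5 to 1000 nM for five days. CellTiter-Glo luminescence gave viability, normalised to DMSO-only wells. Using the drc R package, surviving fractions were fitted with 3-parameter logistic dose-response curves, and the unscaled activity area over log10 dose (Aref = 0) was taken as the area under the curve.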

NILOTINIB = compound: Cc1cn(-c2cc(NC(=O)c3ccc(C)c(Nc4nccc(-c5cccnc5)n4)c3)cc(C(F)(F)F)c2)cn1 [NILOTINIB]
Summary of the method: as §1

[1] = compound: COc1ccc(-c2cc3c(C)nc(N)nc3n([C@H]3CC[C@H](OCCO)CC3)c2=O)cn1
Summary of the method: as §1

BEZ-235 = compound: Cn1c(=O)n(-c2ccc(C(C)(C)C#N)cc2)c2c3cc(-c4cnc5ccccc5c4)ccc3ncc21 [BEZ-235]
Summary of the method: as §1

[2] = compound: CCc1cc(Nc2nccc(-c3c(-c4ccc(OC)c(C(=O)Nc5c(F)cccc5F)c4)nc4ccccn34)n2)c(OC)cc1N1CCC(N2CCN(S(C)(=O)=O)CC2)CC1
Summary of the method: as §1

[3] = compound: C[C@H](CN(C)C)Oc1nc(Nc2cc3cccc(Cl)c3cn2)cnc1C#N
Summary of the method: as §1

LENVATINIB = compound: COc1cc2nccc(Oc3ccc(NC(=O)NC4CC4)c(Cl)c3)c2cc1C(N)=O [LENVATINIB]
Summary of the method: as §1

IMATINIB = compound: Cc1ccc(NC(=O)c2ccc(CN3CCN(C)CC3)cc2)cc1Nc1nccc(-c2cccnc2)n1 [IMATINIB]
Summary of the method: as §1

BLEOMYCIN = compound: Cc1c(N)nc([C@H](CC(N)=O)NC[C@H](N)C(N)=O)nc1C(=O)N[C@H](C(=O)N[C@H](C)[C@@H](O)[C@H](C)C(=O)N[C@H](C(=O)NCCc1nc(-c2nc(C(=O)NCCC[S+](C)C)cs2)cs1)[C@@H](C)O)[C@@H](OC1OC(CO)C(O)C(O)C1OC1OC(CO)C(O)C(OC(N)=O)C1O)c1cnc[nH]1 [BLEOMYCIN]
Summary of the method: as §1

MK-1775 = compound: C=CCn1c(=O)c2cnc(Nc3ccc(N4CCN(C)CC4)cc3)nc2n1-c1cccc(C(C)(C)O)n1 [MK-1775]
Summary of the method: as §1

MDAMB436 BREAST
area under dose-response curve (AFIMOXIFENE): 3.33 | area under dose-response curve (NILOTINIB): 2.98 | area under dose-response curve [1]: 2.03 | area under dose-response curve (BEZ-235): 2.23 | area under dose-response curve [2]: 3.2 | area under dose-response curve [3]: 2.74 | area under dose-response curve (LENVATINIB): 3.2 | area under dose-response curve (IMATINIB): 3.32 | area under dose-response curve (BLEOMYCIN): 2.47 | area under dose-response curve (MK-1775): 2.4

MDAMB468 BREAST
area under dose-response curve (AFIMOXIFENE): 3.58 | area under dose-response curve (NILOTINIB): 3.07 | area under dose-response curve [1]: 2.59 | area under dose-response curve (BEZ-235): 2.83 | area under dose-response curve [2]: 3.5 | area under dose-response curve [3]: 3.03 | area under dose-response curve (LENVATINIB): 3.61 | area under dose-response curve (IMATINIB): 3.53 | area under dose-response curve (BLEOMYCIN): 3.15 | area under dose-response curve (MK-1775): 2.87

MHM BONE
area under dose-response curve (AFIMOXIFENE): 3.46 | area under dose-response curve (NILOTINIB): 3.6 | area under dose-response curve [1]: 2.79 | area under dose-response curve (BEZ-235): 2.85 | area under dose-response curve [2]: 3.29 | area under dose-response curve [3]: 3.43 | area under dose-response curve (LENVATINIB): 3.4 | area under dose-response curve (IMATINIB): 3.51 | area under dose-response curve (BLEOMYCIN): 3.06 | area under dose-response curve (MK-1775): 3.12

OS25HAL BONE
area under dose-response curve (AFIMOXIFENE): 3.51 | area under dose-response curve (NILOTINIB): 3.17 | area under dose-response curve [1]: 2.12 | area under dose-response curve (BEZ-235): 2.66 | area under dose-response curve [2]: 3.27 | area under dose-response curve [3]: 3.06 | area under dose-response curve (LENVATINIB): 3.19 | area under dose-response curve (IMATINIB): 3.47 | area under dose-response curve (BLEOMYCIN): 2.85 | area under dose-response curve (MK-1775): 2.36

OSHN BONE
area under dose-response curve (AFIMOXIFENE): 3.65 | area under dose-response curve (NILOTINIB): 3.28 | area under dose-response curve [1]: 2.99 | area under dose-response curve (BEZ-235): 3.19 | area under dose-response curve [2]: 3.42 | area under dose-response curve [3]: 3.08 | area under dose-response curve (LENVATINIB): 3.63 | area under dose-response curve (IMATINIB): 3.71 | area under dose-response curve (BLEOMYCIN): 2.72 | area under dose-response curve (MK-1775): 2.85

SCC47 HEADNECK
area under dose-response curve (AFIMOXIFENE): 4.16 | area under dose-response curve (NILOTINIB): 3.44 | area under dose-response curve [1]: 2.79 | area under dose-response curve (BEZ-235): 2.85 | area under dose-response curve [2]: 3.42 | area under dose-response curve [3]: 3.17 | area under dose-response curve (LENVATINIB): 3.62 | area under dose-response curve (IMATINIB): 3.94 | area under dose-response curve (BLEOMYCIN): 2.59 | area under dose-response curve (MK-1775): 2.55

SYO1 SYNOVIAL
area under dose-response curve (AFIMOXIFENE): 3.24 | area under dose-response curve (NILOTINIB): 2.99 | area under dose-response curve [1]: 1.95 | area under dose-response curve (BEZ-235): 2.23 | area under dose-response curve [2]: 3.07 | area under dose-response curve [3]: 2.54 | area under dose-response curve (LENVATINIB): 2.56 | area under dose-response curve (IMATINIB): 3.02 | area under dose-response curve (BLEOMYCIN): 1.65 | area under dose-response curve (MK-1775): 2.27

T47D BREAST
area under dose-response curve (AFIMOXIFENE): 3.17 | area under dose-response curve (NILOTINIB): 3.49 | area under dose-response curve [1]: 2.22 | area under dose-response curve (BEZ-235): 2.71 | area under dose-response curve [2]: 3.46 | area under dose-response curve [3]: 3.29 | area under dose-response curve (LENVATINIB): 3.63 | area under dose-response curve (IMATINIB): 3.66 | area under dose-response curve (BLEOMYCIN): 2.92 | area under dose-response curve (MK-1775): 2.97

U2OS BONE
area under dose-response curve (AFIMOXIFENE): 3.56 | area under dose-response curve (NILOTINIB): 3.59 | area under dose-response curve [1]: 2.54 | area under dose-response curve (BEZ-235): 2.68 | area under dose-response curve [2]: 3.38 | area under dose-response curve [3]: 2.9 | area under dose-response curve (LENVATINIB): 3.24 | area under dose-response curve (IMATINIB): 3.59 | area under dose-response curve (BLEOMYCIN): 3.02 | area under dose-response curve (MK-1775): 2.46

VP229 BREAST
area under dose-response curve (AFIMOXIFENE): 3.71 | area under dose-response curve (NILOTINIB): 3.75 | area under dose-response curve [1]: 2.08 | area under dose-response curve (BEZ-235): 2.64 | area under dose-response curve [2]: 3.66 | area under dose-response curve [3]: 3.45 | area under dose-response curve (LENVATINIB): 4.16 | area under dose-response curve (IMATINIB): 4.06 | area under dose-response curve (BLEOMYCIN): 2.61 | area under dose-response curve (MK-1775): 2.75
